Experimental data from US12017917B2, “Composition, particulate materials and methods for making particulate materials” (THE UNIVERSITY OF QUEENSLAND, priority 2015, dated 2024).

What was measured:
[1] = test system: Escherichia coli (E. coli); assay: In vitro antibacterial activity of VAN formulations (OD 600 nm); type: cell-based; details: VAN content 25 μg ml^−1, after 18 h
Procedure: The use of nanoparticles as a delivery vehicle for antibiotics provides a promising strategy through prolonged drug circulation half-life, increased availability of drugs interacting with membrane molecules and promoted sustained drug release. VAN is an antibiotic useful for the treatment of a number of bacterial infections since it inhibits the cell wall synthesis in susceptible bacteria. […] The in vitro antibacterial activity of VAN, MHS200-VAN and RMHS200-VAN was evaluated by monitoring the optical density (OD) at 600 nm of a bacterial suspension. E. coli (1×10^6 CFU mL^−1) was incubated in Luria-Bertani (LB) medium in a 1.5 ml centrifuge tube at various concentrations of VAN for 18 h. […] This value reduced to 20 μg ml^−1 for RMHS200-VAN which is lower than the dosage used with VAN conjugated MCM-41 (200 μg ml^−1) in in-vitro E. coli culture at 18 h. In a separate experiment, MHS200-VAN, RMHS200-VAN and free VAN with the same VAN content of 25 μg ml^−1 were incubated with 1×10^6 CFU mL^−1 E. Coli in LB media and OD was measured as a function of time.

[2] = UV protection of ivermectin (HPLC); type: physicochemical; details: free or loaded into particles, UV irradiation 3 h
Procedure: To investigate the UV protection properties of the silica particles toward ivermectin these nano-formulations as well as pure (free) ivermectin were treated under UV irradiation for 3 h. The samples before and after UV irradiation were analysed using high performance liquid chromatography (HPLC) to identify their compositions. […] This may result from the fact that ivermectin is only partially loaded into the internal cavity of the MSHS-SS particles, resulting in only partial protection.

[3] = test system: E. coli; assay: Long-term bacterial inhibition, bacteria kinetic test under batch culture; type: cell-based; details: lysozyme 700 μg·mL^−1, 3 days
[4] = test system: E. coli; assay: In vitro antibacterial activity of lysozyme formulations (OD); type: cell-based; details: E. coli 5×10^6 CFU mL^−1, 24 h
Procedure: The in vitro antibacterial activity of free lysozyme and lysozyme loaded silica particles formulated using the above procedure were compared by the optical density (OD) measurement. E. coli (5×10^6 CFU mL^−1) was incubated with various concentrations of lysozyme and corresponding lysozyme loaded silica particles for 24 h. […] In contrast, the MIC of free lysozyme towards E. coli cannot be achieved even at the concentration as high as […].

[5] = Release test of nano-spinosad in water (UV-Vis 248 nm); type: physicochemical; details: 25° C.
Procedure: In a release test, 2.67 mg nano-spinosad-X (containing 1 mg spinosad) was dispersed in 1 ml distilled water, respectively. The mixtures were kept at 25° C. incubator at 200 rpm. The supernatants were collected at different time and the released amount of spinosad was measured and evaluated by using a UV-Vis spectrophotometer at a wavelength of 248 nm. The release amount of pure spinosad in water was also tested using the same procedure.
The release profile of both pure spinosad and nano-spinosad were tested in water. […] On the other hand, for pure spinosad, only 2.4% of spinosad was released at 5 min while the cumulative release is less than 8% even at 540 min. […] Consequently, the release behaviour of spinosad is improved compared to the pure spinosad. The fast release of a higher concentration of spinosad is expected to be beneficial for the development of an “effective-immediately” nano-spinosad formulation.

[6] = test system: cattle tick, Rhipicephalus microplus; assay: Larval Immersion Test on cattle tick larvae; type: in vivo; details: Assay 3, 24 h
Procedure: The in vitro effects of spinosad and nano-spinosad on the cattle tick, Rhipicephalus microplus were evaluated. The test was conducted at Biosecurity Sciences Laboratory (Queensland Government) using a standard Larval Immersion Test using organic solvent to extract the actives.
The test was conducted at Biosecurity Sciences Laboratory (Queensland Government) using a standard Larval Immersion Test. In the Larval Immersion Test, both spinosad and nano-Spinsad were firstly dissolved in organic solvent (2% Triton X-100 in acetone) to extract the actives for stock solution (10 mg/ml) and then be diluted in water. […] Three assays were conducted to narrow the LC ranges.

[7] = UV-stability test of nano-spinosad (HPLC); type: physicochemical; details: UV 365 nm, 2 h
Procedure: In this test, 1.2 mg pure spinosad and 4.2 mg nano-spinosad-0.4 (containing 1.2 mg spinosad) were added in two transparent quartz containers, respectively. The using of quartz containers is to minimized the shielding of UV light from the containers. Each of the sample was placed under the UV light with a wavelength of 365 nm and power of 17.77 mV cm^−3. All samples were irradiated by the UV light for 2 hours. After the irradiation, the spinosad and its degradation products were extracted by acetonitrile (ACN) for three times and the final concentration was diluted to. 0.5 mg/ml dispersed in 1 ml distilled water. The UV degradation conditions of both pure spinosad and nano-spinosad-0.4 were tested by high-performance liquid chromatography (HPLC) using ACN as the mobile phase.
The UV stability of nano-spinosad was studied. Both spinosad and nano-spinosad were irradiated under UV light (wavelength 365 nm, 17.77 mV/cm^3) for 2 h followed by HPLC which was used to monitor the product after UV treatment utilizing ACN as the extraction media and mobile phase. […] An additional peak at retention time of 1.5 min was also observed in the pure spinosad group, which can be attributed to the degraded product. This observation is in accordance with literature reports, indicating spinosad itself is UV labile.

CN[C@H](CC(C)C)C(=O)N[C@H]1C(=O)N[C@@H](CC(N)=O)C(=O)N[C@H]2C(=O)N[C@H]3C(=O)N[C@H](C(=O)N[C@H](C(=O)O)c4cc(O)cc(O)c4-c4cc3ccc4O)[C@H](O)c3ccc(c(Cl)c3)Oc3cc2cc(c3O[C@@H]2O[C@H](CO)[C@@H](O)[C@H](O)[C@H]2O[C@H]2C[C@](C)(N)[C@H](O)[C@H](C)O2)Oc2ccc(cc2Cl)[C@H]1O [free VAN, vancomycin]
bacterial growth over time (OD) [1]: re-growth of bacteria

ivermectin [Free ivermectin]
degradation of ivermectin after UV irradiation (HPLC) [2]: fully degraded

lysozyme [free lysozyme]
bacterial growth over time (OD) [3]: time dependent bacterial growth
MIC towards E. coli [4]: > 2 mg

spinosad
spinosad released ([5]; at 5 min): 2.4%
cumulative release of spinosad ([5]; at 540 min): less than 8%
LC50 value to larval cattle ticks [6]: 54 ppm
LC99 value to larval cattle ticks [6]: 196 ppm
UV degradation (HPLC degradation peak) [7]: UV labile
